Assay results taken from US8168667B2 (Galapagos NV, priority 2006, dated 2012).
Where two headings read alike, the source gives them in different places.

Columns and labels:
[1] = biological target: T1, human androgen receptor (hAR) (Homo sapiens, UniProt P10275); test: Functional response test: hAR transactivation (luciferase reporter) in HALP2 cells; type: cell-based
T1 sequence (P10275 1-920): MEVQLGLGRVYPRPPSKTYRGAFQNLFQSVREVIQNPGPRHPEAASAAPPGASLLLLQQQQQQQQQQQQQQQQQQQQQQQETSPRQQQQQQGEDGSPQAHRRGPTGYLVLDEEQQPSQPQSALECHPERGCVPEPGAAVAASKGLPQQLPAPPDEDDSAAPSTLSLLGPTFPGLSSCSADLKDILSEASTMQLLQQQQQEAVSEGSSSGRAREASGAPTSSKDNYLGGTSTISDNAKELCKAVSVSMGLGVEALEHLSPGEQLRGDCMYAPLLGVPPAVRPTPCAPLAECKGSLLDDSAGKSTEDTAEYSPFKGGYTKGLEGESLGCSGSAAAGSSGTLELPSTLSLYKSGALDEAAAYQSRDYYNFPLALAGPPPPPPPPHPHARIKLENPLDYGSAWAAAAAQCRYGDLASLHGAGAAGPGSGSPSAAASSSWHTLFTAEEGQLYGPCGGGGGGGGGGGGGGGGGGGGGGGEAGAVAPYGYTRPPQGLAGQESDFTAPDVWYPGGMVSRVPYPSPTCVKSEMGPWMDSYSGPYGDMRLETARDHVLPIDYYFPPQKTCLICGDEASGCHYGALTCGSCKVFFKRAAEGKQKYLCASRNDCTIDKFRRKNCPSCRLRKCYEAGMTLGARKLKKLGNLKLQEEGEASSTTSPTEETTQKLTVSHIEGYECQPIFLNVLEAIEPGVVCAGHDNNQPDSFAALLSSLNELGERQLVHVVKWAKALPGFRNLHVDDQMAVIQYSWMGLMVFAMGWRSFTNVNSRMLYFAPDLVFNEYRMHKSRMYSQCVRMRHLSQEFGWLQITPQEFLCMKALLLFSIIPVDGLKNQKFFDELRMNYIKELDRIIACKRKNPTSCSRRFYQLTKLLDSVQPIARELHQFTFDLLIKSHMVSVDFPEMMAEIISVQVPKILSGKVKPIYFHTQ
How it was run: (§1)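 HALP2 cells are HeLa cells stably transfected with CMV-driven hAR and a probasin ARE-luciferase reporter. They were seeded 24 h ahead, then exposed to compounds for 20 hours at 37° C in phenol red-free DMEM with 5% desteroided serum. Luciferase luminescence was measured after lysis; for antagonist mode, compounds were tested against increasing DHT concentrations.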

[2] = tested on: castrated immature young rats; test: Adapted model of Hershberger's test (levator ani and ventral prostate weight); type: in vivo, Sprague Dawley rats; details: Rattus norvegicus, po, 96 h
Method: The selective modulating activity of the androgen receptor was tested in a model of castrated immature young rats. This model, which is widely recognised for evaluating the anabolic effects of androgen compounds on the muscles and on the genitalia, has been described by Hershberger et al. 1953 Proc. Soc. Expt. Biol. Med. 83:175.
The method is based on the measurement of the well-known effects of androgens on the growth of the muscles and the accessory male sex organs in animals, and also in men. The consequences of castration appear in the form of a rapid involution and atrophy of the prostate and the seminal vesicles and of the anus-lifting muscle (levator ani). This effect may be completely compensated by an exogeneous administration of androgen, in particular of testosterone. The model is thus used to determine the capacity of the tested molecules to maintain the weight of the accessory sex and muscle organs in immature castrated rats, and therefore their androgenic efficacy.
Immature young Sprague Dawley rats (4 to 5 weeks old) weighing approximately 140-160 g (Charles River, Les Oncins, FRANCE) were distributed randomly in various groups and were kept in an environment at 22±2° C. with an alternating day/night cycle of 12 hours and ad libitum access to food and drink.
On day 0, that is, seven days before commencement of the first treatment, the rats were weighed individually then anaesthetised with an intraperitoneal dose of Ketamine/xylazine (85/15 mg/kg, approximately 2 ml/kg). Each animal was then placed on a sterile field and the abdomen and the scrotum were disinfected with Betadine and 70% alcohol. In the case of the orchidectomised control animals (ORX), the testicles were removed via an incision in the middle of the scrotum. A sterile suture was then made to ligature the supra-testicular portion of the tissue prior to surgical section of each testicle. The groups of animals to be treated by the tested compounds were operated on in an identical manner. In the case of the intact control animals (SHAM), the testicles were similarly extracted and reintroduced delicately to their original location. The site of surgical intervention was then sutured using sterile suture thread, and the site was disinfected again by application of Betadine. Each animal was then kept under a sterile pad until it awoke, before being returned to its cage. The animals were kept in an environment at 22±2° C. with an alternating day/night cycle of 12 hours and ad libitum access to food and drink. The animals were treated with the molecules to be tested from post-surgery day 7 and until day 10 preceding sacrifice (day 11).
The rats were split into groups and treated daily from day 7 to day 10 under the conditions defined below: • 1. SHAM control group: Vehicle (0.5% aqueous methyl cellulose) administered per os. • 2. ORX control group: Vehicle (0.5% aqueous methyl cellulose) administered per os. • 3. Treated ORX group: The tested compounds were administered individually per os in suspension in the vehicle described above, in a dose of 30 mg/kg.
After treatment for 4 successive days, the animals were decapitated using a guillotine. The levator ani and the ventral prostate were removed and weighed individually. For comparing inter-experimental data, the weight of each organ was standardised and expressed in milligrammes per 100 g of the weight of the animal (W). For each organ, the average of the standardised weights of the ORX control group was fixed by definition at 0% and the average of the standardised weights of the SHAM control group was fixed by definition at 100%. The efficacy of each product was expressed as a percentage and calculated using the following formula: (Wtreated−WORX)/(WSHAM−WORX)×100 A subsequent ANOVA test was used for statistical analysis to identify the differences between groups.

[3] = tested on: castrated C57/B16J male mice; test: Model of osteoporosis in male mice (trabecular BMD of tibia); type: in vivo; details: Mus musculus, sc, 672 h, ORX mice, 30 mg/kg subcutaneously daily, day 1 to 28, ORX = 0%, SHAM = 100%, read-out: efficacy in protecting mineral bone density
Method: C57/B16J male mice aged 12 weeks and weighing approximately 20-25 g (Charles River, Les Oncins, FRANCE) were operated on as described above with regard to the rats. Castration mimicked the bone loss caused by androgen deficit. The aim of the study is to evaluate the capacity of the compounds to preserve and/or increase the bone mass. This is evaluated by measuring the bone mineral density (BMD). This model has previously been documented by Sims et al. 2003 J. Clin. Invest. 111(9):1319-27.
The animals were separated randomly into various groups and were kept in an environment at 22±2° C. with an alternating day/night cycle of 12 hours and ad libitum access to food and drink.
The tested compounds were administered from post-surgery day 1 and until day 28 preceding sacrifice (day 29). The mice were treated daily under the conditions defined below: • 1. SHAM control group: Vehicle (10/90 ethanol/corn oil mixture) administered subcutaneously. • 2. ORX control group: Vehicle (10/90 ethanol/corn oil mixture) administered subcutaneously. • 3. Treated ORX group: The tested compounds were administered individually subcutaneously in the vehicle described above, in a dose of 30 mg/kg.
During necropsy, the mice were first weighed then decapitated. The two hindlimbs were then carefully disarticulated at the femoral neck. The right hindlimb was frozen at −20° C. Densitometric quantitative analysis was performed on the trabecular portion of the tibia proximal metaphysis using a tomo densitometer (Stratec SA+, Hologic, Norland).
The average of the trabecular BMD of the mice in the ORX control group was defined as 0%. The average of the trabecular BMD of the mice in the SHAM control group was defined as 100%. The efficacy of each product as a percentage was calculated using the formula: (BMDtreated−BMDORX)/(BMDSHAM−BMDORX)×100
A subsequent ANOVA test was used for statistical analysis to identify the differences between groups.

[4] = biological target: human androgen receptor (hAR) (Homo sapiens, UniProt P10275); test: Functional response test: hAR transactivation (luciferase reporter) in HALP2 cells; type: cell-based; remark: listed apart in the source
How it was run: as §1

[5] = read-out: anabolic protection efficacy with regard to levator ani
[6] = read-out: androgenic efficacy with regard to the prostate

SMILES	KSchild (nM) potency [1] [nM]	melting point [°C]	inhibition in vivo at 30 mg/kg [2, 5] [%]	inhibition in vivo at 30 mg/kg [2, 6] [%]	further results
COc1cc(N2C(=O)N(C)[C@](C)(c3ccc(O)cc3)C2=O)ccc1C#N [Example 156.2, (R)-4-[3,4-dimethyl-2,5-dioxo-4-(4-hydroxyphenyl)imidazolidin-1-yl]-2-methoxybenzonitrile]	1.5	100	50 to 140	5 to 70	–
COCN1C(=O)N(c2ccc(C#N)c(C(F)(F)F)c2)C(=O)[C@@]1(C)c1ccc(O)cc1 [Example 222.1, (R)-4-[2,5-dioxo-4-(4-hydroxyphenyl)-3-methoxymethyl-4-methylimidazolidin-1-yl]-2-trifluoromethylbenzonitrile]	4	97	50 to 140	5 to 70	–
C=CCN1C(=S)N(c2ccc(C#N)c(C(F)(F)F)c2)C(=O)C1(C)c1ccc(O)cc1 (stereo not drawn) [Example 7, 4-[4-(4-hydroxyphenyl)-4-methyl-5-oxo-3-(2-propenyl)-2-thioxoimidazolidin-1-yl]-2-trifluoromethylbenzonitrile]	3.46	–	–	–	inhibition in vivo at 30 mg/kg [3]: 40 to 130%
CC1(c2ccc(O)cc2)C(=O)N(c2ccc(Cl)c(Cl)c2)C(=O)N1CCF (stereo not drawn)	–	–	–	–	EC50 [4]: 8 nM
Cc1c(N2C(=O)N(C)C(C)(c3ccc(O)cc3)C2=O)ccc(C#N)c1Cl (stereo not drawn) [Example 8, 2-chloro-4-[3,4-dimethyl-2,5-dioxo-4-(4-hydroxyphenyl)imidazolidin-1-yl]-3-methylbenzonitrile]	–	–	50 to 140	5 to 70	inhibition in vivo at 30 mg/kg [3]: 40 to 130%
COCN1C(=O)N(c2ccc(C#N)c(OC)c2)C(=O)C1(C)c1ccc(O)cc1 (stereo not drawn) [Example 223.1, 4-[4-(4-hydroxyphenyl)-3-methoxymethyl-4-methyl-2,5-dioxoimidazolidin-1-yl]-2-methoxybenzonitrile]	4	141	–	–	–
CN1C(=O)N(c2ccc(Cl)c(Cl)c2)C(=O)C1(CO)c1ccc(O)cc1 (stereo not drawn) [Example 175, 1-(3,4-dichlorophenyl)-4-hydroxymethyl-4-(4-hydroxyphenyl)-3-methylimidazolidine-2,5-dione]	–	215.6	–	–	EC50 ([1]; agonism, HALP2 cells (HeLa, hAR + ARE-luciferase), 20 hours at 37° C.): 1.38 nM; KSchild (nM) potency ([1]; antagonism, concentration which increases the EC50 of the DHT by a factor of 2, Schild regression, HALP2 cells): 0.37 nM; inhibition in vivo at 30 mg/kg ([2]; ORX rats, 30 mg/kg per os, 4 successive days, ORX = 0%, SHAM = 100%, read-out: anabolic protection efficacy with regard to levator ani): 50 to 140%; inhibition in vivo at 30 mg/kg ([2]; ORX rats, 30 mg/kg per os, 4 successive days, ventral prostate, ORX = 0%, SHAM = 100%, read-out: androgenic efficacy with regard to the prostate): 5 to 70%
